pIC50: −log10 of the molar value.
Key:
[1] = biological target: T1, Mas-related G-protein coupled receptor member X1 (Homo sapiens, UniProt Q96LB2); test: Antagonist activity at MrgX1 in mouse or rat DRG neurons assessed as intracellular Ca2+ level by FLIPR assay; type: functional, cell-based
[2] = biological target: T1, Mas-related G-protein coupled receptor member X1; test: Antagonist activity at MrgX1 in mouse or rat DRG neurons assessed as action potential by whole-cell patch clamp method; type: functional

T1 sequence (Q96LB2 whole entry, looked up): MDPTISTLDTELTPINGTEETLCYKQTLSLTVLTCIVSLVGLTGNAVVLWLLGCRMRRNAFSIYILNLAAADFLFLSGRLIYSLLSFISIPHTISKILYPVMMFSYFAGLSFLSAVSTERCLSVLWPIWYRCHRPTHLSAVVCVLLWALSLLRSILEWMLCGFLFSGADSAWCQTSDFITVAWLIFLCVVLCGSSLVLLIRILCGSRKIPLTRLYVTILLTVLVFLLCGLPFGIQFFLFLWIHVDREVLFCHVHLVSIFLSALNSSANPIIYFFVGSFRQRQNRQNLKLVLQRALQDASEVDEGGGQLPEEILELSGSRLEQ

Question: Which results are given for `N#Cc1ccc(COC2C3CCN(CC3)C2C(c2ccccc2)c2ccccc2)cc1` (configuration not stated)?
Answer: pIC50 [1]: 6.20; pIC50 [2]: 5.25

Source: ChEMBL document CHEMBL3727359, “Methods and compositions for treating or preventing pruritis” (2012)
